Experimental data as given in PubChem BioAssay AID2423 (Broad Institute, 2010).
pEC50: −log10 of the molar value. Results filed as inconclusive are left out. Active and inactive are the calls of the source. No rule for the calls is given here.

System: C. albicans CaCi-8 + fluconazole, Alamar Blue growth, 48 h
Assay: resistant C. albicans growth inhibition with fluconazole, dose response, CaCi-8 strain, Alamar Blue fluorescence (AID 2423)

| SMILES | pEC50 | EC50 |
| --- | --- | --- |
| O=C(Nc1ccc(F)c(Cl)c1)NC1CC1 | 5.83 |  |
| COc1cc(-c2nnc(SCc3cc(=O)oc4cc(O)c(O)cc34)o2)cc(OC)c1OC | 5.36 |  |
| CCN=c1scc(-c2ccc3c(c2)NC(=O)CO3)n1N=C1CCCC1 | 5.14 |  |
| O=C(c1cc2c(s1)-c1ccccc1OC2)N1CCC2(CC1)OCCO2 | 5.70 |  |
| Cc1[nH]nc(-c2ccc(O)c(C)c2O)c1-c1cnn(-c2ccccc2)c1 | 5.40 |  |
| Cc1nc2ccc(NC(=O)COc3ccccc3)cc2s1 | 5.27 |  |
| CS/C(=N\S(=O)(=O)c1cccs1)Nc1ccc(F)c(Cl)c1 | 5.72 |  |
| O=C(Oc1c(Cl)cc(Cl)c2cccnc12)c1cccc([N+](=O)[O-])c1 | 6.35 |  |
| O=C(NNC1=C(C(=O)C(F)(F)F)CCC1)c1ccc(Cl)cc1 | 5.98 |  |
| O=C(NNC(=S)Nc1cccc(C(F)(F)F)c1)c1ccc(Cl)cc1Cl | 5.71 |  |
| NC(=S)NNc1cccc(Cl)c1 |  | > 16 µM (inactive) |
| CCn1c(C)nc2cc(C(=O)NNC(=S)Nc3ccc(Cl)cc3Cl)ccc21 | 6.00 |  |
| CCOc1ccc(-n2c(C)cc(C(=O)CCl)c2C)cc1 | 5.24 |  |
| Cc1ccc(C(=O)CC(=O)COc2ccc(Cl)cc2)cc1 | 5.53 |  |
| CCN(CC)c1ccc(/C=N/NC(=O)c2nnn(-c3nonc3N)c2C(C)C)c(O)c1 | 6.33 |  |
| Cc1cc(NCCCn2ccnc2)n2ncc(-c3ccc(Cl)cc3)c2n1 | 5.88 |  |
| CC(Nc1ncnc2ccccc12)c1ccccc1 (centres undefined) | 6.22 |  |
| CCCn1c(=N)n(CC(=O)c2ccc([N+](=O)[O-])cc2)c2ccccc21 |  | > 16 µM (inactive) |
| CN(C)c1ccc(NC(=O)C2C3C=CC(C3)C2C(=O)O)cc1 (centres undefined) |  | > 16 µM (inactive) |
| Cc1ccc(C2C3CSCC=C3C(C#N)=C(N)C2(C#N)C#N)cc1 (centres undefined) | 4.79 |  |
| COc1cccc(/C=N\NC(=O)c2ccc(Cn3cc(Br)c([N+](=O)[O-])n3)o2)c1O | 5.29 |  |
| Oc1c(Br)cc(Br)cc1CNc1cccc2cccnc12 |  | > 15 µM (inactive) |

| SMILES | pEC50 | EC50 |
| --- | --- | --- |
| CCCOc1ccc(C(=O)NNC(=S)NC(C)=O)cc1 | 5.78 |  |
| O=C(Cc1ccccc1)N/N=C/c1cc(Br)cc(Cl)c1O |  | > 15 µM (inactive) |
| CC(C)(C)c1ccc(OCCCC(=O)NNC(=O)c2ccccc2O)cc1 | 5.59 |  |
| O=C(N/N=C/c1sc(N2CCCCC2)nc1-c1cccs1)c1cccnc1 | 5.83 |  |
| Cc1cc(C(=O)Nc2ccccc2C(=O)O)ccc1NC(=O)COc1cccc([N+](=O)[O-])c1 | 5.28 |  |
| CC(OC(=O)c1oc2ccccc2c1COc1ccccc1)C(N)=O (centres undefined) |  | > 16 µM (inactive) |
| COc1ccc(-n2cccc2/C=C2\C(=N)N3N=C(C(C)C)SC3=NC2=O)cc1 | 4.79 |  |
| NC[C@@H]1O[C@H](C23CC4CC(CC(C4)C2)C3)Cc2c1ccc(O)c2O | 5.47 |  |
| COc1ccc(OC)c(C2C(C(=O)c3cc4ccccc4o3)=C(O)C(=O)N2c2cc(C)on2)c1 (centres undefined) | > 6.92 |  |
| Cc1ccc(NC(=O)NNC(=O)c2cc3ccccc3cc2O)c(C)c1 |  | > 15 µM (inactive) |
| COc1ccc(-c2nc(-c3ccncc3)no2)cc1OC | 5.12 |  |
| C/C(=N\NC(=O)c1nn(C)c(C)c1Br)c1ccc(NC(=O)C2CCCC2)cc1 |  | > 15 µM (inactive) |
| CCOc1cccc(-c2cc(-c3n[nH]c(=S)n3CC)c3ccccc3n2)c1 | 5.40 |  |
| O=C(N/N=C\C=C\c1ccc([N+](=O)[O-])o1)c1cccs1 |  | > 16 µM (inactive) |
| O=[N+]([O-])c1cc(S(=O)(=O)C(F)(F)F)ccc1Sc1nc2ccccc2s1 | 5.50 |  |
| COc1ccc(C(=O)On2c(-c3ccc(Br)cc3)nc3ccccc3c2=O)cc1 | 5.96 |  |
| COc1ccc(C2c3ccc4ccccc4c3Oc3ncn(CCN4CCOCC4)c(=N)c32)cc1 (centres undefined) | 5.93 |  |
| CCCNC(=O)c1ccc2c(=O)c(O)c(-c3ccc(OC)cc3)[nH]c2c1 | 5.61 |  |
| Oc1ccc(O)c2c1C1c3ccccc3C2c2ccccc21 | 5.69 |  |
| CCOc1ccc(Nc2nc(NCC3CCCO3)c3ccccc3n2)cc1 (centres undefined) | 5.70 |  |
| CCn1c(NC(=O)c2cccs2)nc2ccccc21 | 5.89 |  |
| Cn1cccc1-c1cc(C(=O)N2CCc3c([nH]c4ccccc34)C2c2ccccn2)[nH]n1 (centres undefined) | 6.13 |  |
